Our source for the IC50 values is US11279712B2, “Macrocyclic compounds that inhibit MCL-1 protein” (AMGEN INC., priority 2017, dated 2022).

Test [1] addresses Mcl-1/Bim interaction (recombinant human Mcl-1 residues 171-327) (Homo sapiens (Human), UniProt Q07820). Nature of the test: Cell Free Mcl-1:Bim Affinity Assay (Mcl-1 HTRF). The settings on record: TR-FRET, 0.1 nM Mcl-1(171-327), 0.05 nM biotin-Bim(51-76). Format: binding. On the procedure: Cell Free Mcl-1:Bim Affinity Assay (Mcl-1 HTRF)
The inhibition of the Mcl-1/Bim interaction was measured using a time-resolved fluorescence resonance energy transfer (TR-FRET) assay. The recombinant human Mcl-1 (C-terminally 6×His tagged Mcl-1 containing residues 171-327) was generated at Amgen Inc (Thousand Oaks, Calif.). A biotinylated peptide derived from human Bim (residues 51-76) was purchased from CPC Scientific (San Jose, Calif.). The TR-FRET assay was conducted in a 384-well white OptiPlate™ (PerkinElmer, Waltham, Mass.) in a total volume of 40 μL. The reaction mixture contained 0.1 nM Mcl-1(171-327), 0.05 nM biotin-Bim(51-76), 0.05 nM LANCES Eu-W1024 Anti-6×His (PerkinElmer), 0.072 nM Streptavidin-Xlent (Cisbio, Bedford, Mass.), and serially diluted test compounds in the binding buffer of 20 mM Hepes, pH 7.5, 150 mM NaCl, 0.016 mM Brij®35, and 1 mM dithiothreitol. Test compounds were pre-incubated with Mcl-1(171-327) and biotin-Bim (51-76) for 60 min before addition of the detection mixture (LANCE® Eu-W1024 Anti-6×His and Streptavidin-Xlent). The reaction plates were further incubated overnight and then were read on an Envision® multimode reader (PerkinElmer). Fluorescence signals were measured at 620 nm (40-nm bandwidth) and 665 nm (7.5-nm bandwidth) with a 60 μs delay after excitation at 320 nm (75-nm bandwidth). The signal ratio at 665/620 nm corresponded to the Mcl-1/Bim interaction and was used in all data analyses. The IC50 values of test compounds were determined from duplicate data by analyzing competition curves using a four-parameter sigmoidal model in GraphPad Prism (GraphPad Software, San Diego, Calif.) or in Genedata Screener® (Genedata, Basel, Switzerland).

Test [2] relates to OPM-2 human multiple myeloma cell line. Put plainly: Cell Viability Assay (OPM-2 10 FBS). Format: cell-based. The settings on record: OPM-2 cells, CellTiter-Glo, read-out: OPM-2 10% FBS IC50 IP. On the procedure:
Cell Viability Assay (OPM-2 10 FBS)
The human multiple myeloma cell line, OPM-2, was cultured in complete growth medium containing RPMI 1640 and 10% fetal bovine serum (FBS). Cells were seeded into 384-well plates at 3000 cells/well density in complete growth medium containing 10% FBS, and incubated for 16 h with serially diluted test compounds in a 37° C. incubator with 5% CO2. Cell viability was tested using CellTiter-Glo® assay (Promega, Madison, Wis.) according to the manufacturer recommendations. Luminescence was determined using an EnVision® Multilabel plate reader 25 min after the addition of detection reagent. IC50 values were then calculated with Xlfit using a logistical 4-parameter fit model in GraphPad Prism (GraphPad Software, San Diego, Calif.) or in Genedata Screener® (Genedata, Basel, Switzerland).

Where two headings read alike, the source gives them in different places.

Sequence of Mcl-1/Bim interaction (recombinant human Mcl-1 residues 171-327) (Q07820 171-327): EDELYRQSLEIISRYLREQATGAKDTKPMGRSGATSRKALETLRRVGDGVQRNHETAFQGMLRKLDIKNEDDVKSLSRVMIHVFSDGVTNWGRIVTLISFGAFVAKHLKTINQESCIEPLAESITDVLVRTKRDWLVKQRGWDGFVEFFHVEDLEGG

For the compound `C[C@@H]1[C@@H](C)CCC[C@H](CN2CCN3CCN(C)C[C@@H]3C2)[C@@H]2CC[C@H]2CN2C[C@@]3(CCCc4cc(Cl)ccc43)COc3ccc(cc32)C(=O)NS1(=O)=O` (single isomer, unassigned) [Example 1], the IC50 in test [1] amounted to 0.225 nM; in test [2] (16 h) it was 117 nM.

On to `CC(=O)N1CCN2CCN(C[C@H]3CCC[C@H](C)[C@@H](C)S(=O)(=O)NC(=O)c4ccc5c(c4)N(C[C@@H]4CC[C@@H]34)C[C@@]3(CCCc4cc(Cl)ccc43)CO5)C[C@H]2C1` (single isomer, unassigned) [Example 4], for which the values for the IC50 in test [1] and in test [2] (16 h) were 0.212 nM and 172 nM, respectively.

As for `C[C@@H]1[C@@H](C)CCC[C@H](CN2CCN(C)CC2)[C@@H]2CC[C@H]2CN2C[C@@]3(CCCc4cc(Cl)ccc43)COc3ccc(cc32)C(=O)NS1(=O)=O` (single isomer, unassigned) [Example 5], the IC50 is 0.622 nM in test [1] and 173 nM in test [2] (16 h). With `C[C@@H]1[C@@H](C)CCC[C@H](CN2CCN3CCN(C)C[C@@H]3C2)[C@@H]2CC[C@H]2CN2C[C@@]3(CCCc4cc(Cl)ccc43)COc3ccc(cc32)C(=O)NS1(=O)=O` (single isomer, unassigned) [Example 6], the IC50 in test [1] was determined as 0.353 nM; in test [2] (16 h), 177 nM. The corresponding values for `COCCN1CCN(C[C@H]2CCC[C@H](C)[C@@H](C)S(=O)(=O)NC(=O)c3ccc4c(c3)N(C[C@@H]3CC[C@@H]23)C[C@@]2(CCCc3cc(Cl)ccc32)CO4)CC1=O` (single isomer, unassigned) [Example 7] are 0.181 nM and 180 nM. For `C[C@@H]1[C@@H](C)CCC[C@@H](C(=O)N2CCOCC2)[C@@H]2CC[C@H]2CN2C[C@@]3(CCCc4cc(Cl)ccc43)COc3ccc(cc32)C(=O)NS1(=O)=O` (single isomer, unassigned) [Example 8] the same measures were 0.126 nM and 221 nM. With `C[C@@H]1[C@@H](C)CCC[C@H](C(=O)N2CCC2)[C@@H]2CC[C@H]2CN2C[C@@]3(CCCc4cc(Cl)ccc43)COc3ccc(cc32)C(=O)NS1(=O)=O` (single isomer, unassigned) [Example 9], the IC50 in test [1] stood at 0.246 nM; in test [2] (Homo sapiens, OPM-2, 16 h), 223 nM. Turning to `C[C@@H]1[C@@H](C)CCC[C@H](CN2CCN3CCOC[C@@H]3C2)[C@@H]2CC[C@H]2CN2C[C@@]3(CCCc4cc(Cl)ccc43)COc3ccc(cc32)C(=O)NS1(=O)=O` (single isomer, unassigned) [Example 10], the IC50 in test [1] was found to be 0.291 nM; in test [2] (Homo sapiens, OPM-2, 16 h), 227 nM.

As to `COCCNC(=O)[C@H]1CCC[C@H](C)[C@@H](C)S(=O)(=O)NC(=O)c2ccc3c(c2)N(C[C@@H]2CC[C@H]21)C[C@@]1(CCCc2cc(Cl)ccc21)CO3` (single isomer, unassigned) [Example 11], the IC50 stood at 0.237 nM in test [1] and 242 nM in test [2] (Homo sapiens, OPM-2, 16 h). With `COCCN1CCN(C[C@H]2CCC[C@H](C)[C@@H](C)S(=O)(=O)NC(=O)c3ccc4c(c3)N(C[C@@H]3CC[C@@H]23)C[C@@]2(CCCc3cc(Cl)ccc32)CO4)CC1` (single isomer, unassigned) [Example 12], the IC50 in test [1] was 0.542 nM; in test [2] (16 h), 254 nM. With `C[C@@H]1[C@@H](C)CCC[C@H](CN2CC(N(C)C)C2)[C@@H]2CC[C@H]2CN2C[C@@]3(CCCc4cc(Cl)ccc43)COc3ccc(cc32)C(=O)NS1(=O)=O` (single isomer, unassigned) [Example 13], the IC50 in test [1] turned out to be 0.77 nM; in test [2] (Homo sapiens, OPM-2, 16 h), 258 nM. Take `CC(=O)N1CCN2CCN(C[C@H]3CCC[C@H](C)[C@@H](C)S(=O)(=O)NC(=O)c4ccc5c(c4)N(C[C@@H]4CC[C@@H]34)C[C@@]3(CCCc4cc(Cl)ccc43)CO5)C[C@H]2C1` (single isomer, unassigned) [Example 15]: the figures for the IC50 in test [1] and in test [2] (16 h) were 0.185 nM and 277 nM, respectively.

On to `C[C@@H]1[C@@H](C)CCC[C@H](CN2CC3(CCCN3C)C2)[C@@H]2CC[C@H]2CN2C[C@@]3(CCCc4cc(Cl)ccc43)COc3ccc(cc32)C(=O)NS1(=O)=O` (single isomer, unassigned) [Example 16], for which the IC50 in test [1] worked out at 0.317 nM; in test [2] (16 h), 283 nM. Consider `C[C@@H]1[C@@H](C)CCC[C@H](CN2CC(C)(N(C)C)C2)[C@@H]2CC[C@H]2CN2C[C@@]3(CCCc4cc(Cl)ccc43)COc3ccc(cc32)C(=O)NS1(=O)=O` (single isomer, unassigned) [Example 17], for which the IC50 in test [1] came to 0.881 nM; in test [2] (Homo sapiens, OPM-2, 16 h) it was 284 nM. Turning to `C[C@@H]1[C@@H](C)CCC[C@H](CN2CCN3CCN(C)C[C@@H]3C2)[C@@H]2CC[C@H]2CN2C[C@@]3(CCCc4cc(Cl)ccc43)COc3ccc(cc32)C(=O)NS1(=O)=O` (single isomer, unassigned) [Example 19], the IC50 in test [1] was 0.532 nM; in test [2] (16 h), 303 nM.

As to `CC(=O)N1CCN(C[C@H]2CCC[C@H](C)[C@@H](C)S(=O)(=O)NC(=O)c3ccc4c(c3)N(C[C@@H]3CC[C@@H]23)C[C@@]2(CCCc3cc(Cl)ccc32)CO4)CC1` (single isomer, unassigned) [Example 22], the IC50 in test [1] stood at 0.375 nM; in test [2] (Homo sapiens, OPM-2, 16 h), 305 nM. For the compound `C[C@@H]1[C@@H](C)CCC[C@H](CO)[C@@H]2CC[C@H]2CN2C[C@@]3(CCCc4cc(Cl)ccc43)COc3ccc(cc32)C(=O)NS1(=O)=O` (single isomer, unassigned) [Example 23], the IC50 in test [1] turned out to be 0.182 nM; in test [2] (16 h), 305 nM. The corresponding values for `C[C@@H]1[C@@H](C)C/C=C/[C@H](CO)[C@@H]2CC[C@H]2CN2C[C@@]3(CCCc4cc(Cl)ccc43)COc3ccc(cc32)C(=O)NS1(=O)=O` (single isomer, unassigned) [Example 24] are 0.224 nM and 322 nM. The corresponding values for `C[C@@H]1[C@@H](C)C/C=C/[C@H](CO)[C@@H]2CC[C@H]2CN2C[C@@]3(CCCc4cc(Cl)ccc43)COc3ccc(cc32)C(=O)NS1(=O)=O` (single isomer, unassigned) [Example 26] are 0.336 nM and 342 nM. The corresponding values for `COCC[C@@H]1[C@@H](C)CCC[C@H](CO)[C@@H]2CC[C@H]2CN2C[C@@]3(CCCc4cc(Cl)ccc43)COc3ccc(cc32)C(=O)NS1(=O)=O` (single isomer, unassigned) [Example 29] are 0.226 nM and 366 nM. In the case of `C[C@@H]1[C@@H](C)CCC[C@H](CN2CCN3CCOC[C@H]3C2)[C@@H]2CC[C@H]2CN2C[C@@]3(CCCc4cc(Cl)ccc43)COc3ccc(cc32)C(=O)NS1(=O)=O` (single isomer, unassigned) [Example 31], the IC50 in test [1] was 0.261 nM; in test [2] (16 h) it was 376 nM. The corresponding values for `C[C@@H]1[C@@H](C)CCC[C@H](CN2CCN(C)CC2)[C@@H]2CC[C@H]2CN2C[C@@]3(CCCc4cc(Cl)ccc43)COc3ccc(cc32)C(=O)NS1(=O)=O` (single isomer, unassigned) [Example 34] are 0.602 nM and 417 nM. As to `CC(=O)N1CCN2CCN(C[C@H]3CCC[C@H](C)[C@@H](C)S(=O)(=O)NC(=O)c4ccc5c(c4)N(C[C@@H]4CC[C@@H]34)C[C@@]3(CCCc4cc(Cl)ccc43)CO5)C[C@H]2C1` (single isomer, unassigned) [Example 35], the IC50 stood at 0.05 nM in test [1] and 421 nM in test [2] (16 h). `C[C@@H]1[C@@H](C)CCC[C@H](CN2CCN3CCN(C(=O)OC(C)(C)C)C[C@@H]3C2)[C@@H]2CC[C@H]2CN2C[C@@]3(CCCc4cc(Cl)ccc43)COc3ccc(cc32)C(=O)NS1(=O)=O` (stereo in doubt) [Example 64]: the IC50 in test [2] (Homo sapiens, OPM-2, 16 h) was 1500 nM. As to `C[C@@H]1[C@@H](C)CCC[C@@H](CC(=O)N2CCN3CCOC[C@H]3C2)[C@@H]2CC[C@H]2CN2C[C@@]3(CCCc4cc(Cl)ccc43)COc3ccc(cc32)C(=O)NS1(=O)=O` [Example 2, (1s,3′r,6′s,7′s,11′s,12′r)-6-chloro-7′-(2-((9ar)-hexahydropyrazino[2,1-c][1,4]oxazin-8(1h)-yl)-2-oxoethyl)-11′,12′-dimethyl-3,4-dihydro-2h,15′h-spiro[naphthalene-1,22′-[20]oxa[13]thia[1,14]diazatetracyclo[14.7.2.0˜3,6˜0.0˜19,24˜]pentacosa[16,18,24]trien]-15′-one 13′,13′-dioxide trifluoroacetic acid], the IC50 in test [2] (Homo sapiens, OPM-2, 16 h) was found to be 134 nM.
